inhibition, Activity and IC50 data for seven compounds are collected here from ChEMBL document CHEMBL3045395, “Synthesis and reactive oxygen species scavenging activity of halogenated alkaloids from boldine” (Med Chem Res, 2012).

The nature of data set [1]: Antioxidant activity in Homo sapiens (human) PMNC assessed as inhibition of fMLP-induced ROS generation at 100 uM incubated for 30 min prior to fMLP-induction measured every 4 secs for 100 secs by luminol-enhanced chemiluminescence analysis. It is filed as functional.
Data set [2] deals with Xanthine dehydrogenase/oxidase (Homo sapiens, UniProt P47989). Kind of data set: Inhibition of xanthine oxidase (unknown origin) using pterine as substrate assessed as rate of isoxantopterine formation by fluorimetric analysis (reference value: 3.25 +/- 0.25 umol/min).
A short description of data set [3]: Antioxidant activity assessed as inhibition of hypoxanthine/xanthine oxidase-mediated ROS generation incubated for 5 min prior to xanthine oxidase addition measured every 4 secs for 100 secs by luminol-enhanced chemiluminescence analysis. It is filed as functional.
A short description of data set [4]: (§1) Antioxidant activity in Homo sapiens (human) PMNC assessed as inhibition of fMLP-induced ROS generation incubated for 30 min prior to fMLP-induction measured every 4 secs for 100 secs by luminol-enhanced chemiluminescence analysis. Type of data set: functional.
The species named for data set [5] is Homo sapiens. The description is as §1. It is filed as functional.

Xanthine dehydrogenase/oxidase, sequence (P47989 whole entry): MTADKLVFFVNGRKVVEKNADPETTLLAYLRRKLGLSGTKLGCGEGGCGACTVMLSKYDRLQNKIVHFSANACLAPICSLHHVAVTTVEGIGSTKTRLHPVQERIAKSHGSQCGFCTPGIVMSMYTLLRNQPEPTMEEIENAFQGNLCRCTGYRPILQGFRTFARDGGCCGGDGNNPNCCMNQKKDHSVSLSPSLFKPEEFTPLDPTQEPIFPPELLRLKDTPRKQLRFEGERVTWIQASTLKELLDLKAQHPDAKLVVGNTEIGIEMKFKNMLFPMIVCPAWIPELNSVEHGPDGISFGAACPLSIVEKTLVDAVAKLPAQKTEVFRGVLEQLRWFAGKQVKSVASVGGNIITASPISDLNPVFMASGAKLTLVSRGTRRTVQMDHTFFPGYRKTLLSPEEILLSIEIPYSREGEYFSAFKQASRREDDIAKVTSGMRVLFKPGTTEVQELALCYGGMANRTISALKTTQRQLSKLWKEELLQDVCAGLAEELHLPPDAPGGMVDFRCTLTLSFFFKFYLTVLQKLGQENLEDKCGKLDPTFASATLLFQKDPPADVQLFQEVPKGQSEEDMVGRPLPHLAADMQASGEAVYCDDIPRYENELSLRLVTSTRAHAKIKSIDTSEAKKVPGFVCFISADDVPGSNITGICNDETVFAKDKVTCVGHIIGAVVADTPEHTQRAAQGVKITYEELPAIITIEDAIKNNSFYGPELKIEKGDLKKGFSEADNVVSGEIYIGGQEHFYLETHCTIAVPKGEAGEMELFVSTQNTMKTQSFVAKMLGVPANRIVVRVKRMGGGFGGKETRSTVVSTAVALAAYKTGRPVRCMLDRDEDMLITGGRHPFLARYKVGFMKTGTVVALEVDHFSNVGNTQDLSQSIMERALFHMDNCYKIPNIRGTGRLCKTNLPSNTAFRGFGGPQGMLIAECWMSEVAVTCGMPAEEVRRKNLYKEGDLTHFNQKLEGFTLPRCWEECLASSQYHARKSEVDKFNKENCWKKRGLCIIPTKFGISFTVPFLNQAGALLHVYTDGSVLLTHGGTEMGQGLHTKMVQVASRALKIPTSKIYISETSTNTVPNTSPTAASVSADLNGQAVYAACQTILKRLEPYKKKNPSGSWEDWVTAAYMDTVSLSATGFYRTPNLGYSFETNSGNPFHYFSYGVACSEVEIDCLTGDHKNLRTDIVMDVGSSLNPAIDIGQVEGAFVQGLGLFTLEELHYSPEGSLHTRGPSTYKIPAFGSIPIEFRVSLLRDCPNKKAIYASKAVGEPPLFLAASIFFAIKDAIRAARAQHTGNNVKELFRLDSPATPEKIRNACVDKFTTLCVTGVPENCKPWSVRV

Take `COc1cc2ccc3c(CC[N+](C)(C)C)c(Br)c(OC)c(OC)c3c2cc1OC.[I-]`: the inhibition at 100 µM in data set [1] came out at 62%. In addition, in data set [2], the Activity came to 3.45 µmol/min. Moreover, in data set [3], the IC50 was 3.01 µM and the inhibition result is “Dose-dependent effect”.
As for `COc1cc2c(ccc3c(CC[N+](C)(C)C)c(Br)c(O)c(OC)c32)cc1O.[I-]`, in data set [2], the Activity amounted to 3.6 µmol/min. Further, the IC50 in data set [3] was found to be 2.11 µM; in data set [4] it was 0.74 µM. The inhibition result in data set [3] and in data set [5] was “Dose-dependent effect” throughout.
`COc1cc2c(ccc3c(CCN(C)C)c(Br)c(O)c(OC)c32)cc1O` [2-BROMO-N-METHYLSECOBOLDINE]: the Activity in data set [2] was 3.98 µmol/min. Besides, the values for the IC50 in data set [3] and in data set [4] were 0.19 µM and 0.78 µM, respectively. Moreover, the inhibition entry in data set [3] and in data set [5] was “Dose-dependent effect” throughout.
As to `CNCCc1c(Br)c(O)c(OC)c2c1ccc1cc(O)c(OC)cc12` [2-BROMOSECOBOLDINE], the Activity in data set [2] was 2.82 µmol/min. The 50% inhibitory concentration (IC50) in data set [3] amounted to 0.16 µM; in data set [4] it was 0.64 µM. Besides, the inhibition entry in data set [3] and in data set [5] was “Dose-dependent effect” in each case.
For the compound `COc1cc2c(cc1O)C[C@H]1c3c(c(Br)c(O)c(OC)c3-2)CC[N+]1(C)C.[I-]` [3-BROMO-N-METHYLBOLDINE IODIDE], the Activity in data set [2] stood at 3.77 µmol/min. The IC50 in data set [3] was found to be 2 µM; in data set [4], 1.27 µM. The inhibition entry in data set [3] and in data set [5] was “Dose-dependent effect” throughout.
On to `COc1cc2c(cc1O)C[C@H]1c3c(c(Br)c(O)c(OC)c3-2)CCN1C` [3-BROMOBOLDINE], for which the Activity in data set [2] is 4.09 µmol/min. In addition, the IC50 was determined as 0.55 µM in data set [3] and 0.81 µM in data set [4]. In addition, the inhibition entry in data set [3] and in data set [5] was “Dose-dependent effect” throughout.
For the compound `O=C1O[C@H]([C@@H](O)CO)C(O)=C1O` [ASCORBIC ACID], in data set [4], the concentration for half-maximal inhibition (IC50) was 168 µM.

By inhibition is commonly meant the share of the control response that was lost under treatment. As usually defined, the IC50 is the concentration that inhibits the measured activity by half.
